Legend:
[1] = system: acquired pendular nystagmus due to multiple sclerosis; conditions: in vivo; cited from earlier work
[2] = system: congenital idiopathic and acquired nystagmus; conditions: human, in vivo; cited from earlier work
[3] = system: congenital, idiopathic nystagmus (subgroup: acquired nystagmus in MS patients); assay: Double blind placebo controlled pilot trial of neramexane for treatment of nystagmus; format: in vivo, human; conditions: as compared to the placebo group, Neramexane mesylate up to 75 mg/d, 7 weeks
Description: The objective of this pilot project is to conduct a clinical trial to assess the efficacy of neramexane as a treatment for nystagmus.
The primary objective of this study is to investigate the safety and efficacy of Neramexane mesylate at daily doses of up to 75 mg in the treatment of congenital, idiopathic nystagmus in comparison to placebo. In addition, a subgroup of up to 20 MS patients suffering from acquired nystagmus are included and analyzed in an exploratory manner. In both patient groups, effects of treatment is assessed in comparison with placebo using a two-period cross-over design (two treatment periods of 7 weeks each, separated by a wash-out phase.
The study is designed as a randomized, double-blind placebo-controlled, pilot study using a two-period cross-over design. Suitable patients are randomly assigned to one of the two treatment sequences of the cross-over trial (sequence A-B or B-A), i.e. double-blind treatment with Neramexane (A) and matching placebo tablets (B).
Patients with congenital nystagmus (no pathology other than nystagmus; primary analysis population) or acquired nystagmus subsequent to MS (exploratory analysis only) • male or female outpatients aged between 18 and 80 years (inclusive) at screening; • patients with a metric visual acuity (VA) of 6/9 or lower 6/9); • for females of childbearing potential (last menses less than one year prior to enrollment): negative pregnancy test at baseline; either surgically sterile or use of a medically accepted method of contraception during the entire duration of the study; • congenital idiopathic nystagmus patients: uneventful gross neurological examination; • MS patients: diagnosis ‘multiple sclerosis’ as confirmed on the basis of McDonald criteria; • normal results of electroretinography (ERG) and visually evoked potential (VEP) testing; historical results may be accepted (period of acceptability to be defined) • patients having given written informed consent; • patient expected and willing to comply with the scheduled visits, dosing scheme (in particular placebo), and other requirements of the study; • results of normal physical examination, electrocardiogram (ECG), and safety laboratory at screening, or abnormal findings which are judged not clinically significant by the investigator; • Refraction prior to enrolment and, if required, prescription and receipt of new glasses or contact lenses prior to baseline visual acuity measurement
Neramexane mesylate 25 mg modified release tablets and matching placebo tablets are administered as film coated tablets. […]
Visual acuity (VA) is the standard by which the outcomes of drug therapy in nystagmus are measured in the framework of clinical trials. […]

[4] = system: N-methyl-D-aspartate (NMDA) receptors; conditions: cited from earlier work

Structure (SMILES) | activity in acquired pendular nystagmus due to multiple sclerosis [1] | effectiveness in the treatment of congenital idiopathic and acquired nystagmus [2] | secondary outcome: expanded nystagmus acuity function [3] | secondary outcome: nystagmus intensity [3] | secondary outcome: reading ability [3] | primary outcomes, such as visual acuity ([3]; two-period cross-over) | NMDA-receptor affinity / mode of antagonism [4]
CC12CC3CC(C)(C1)CC(N)(C3)C2 [memantine] | demonstrated activity | may be effective | – | – | – | – | –
CC1(C)CC(C)(C)CC(C)(N)C1 [neramexane, 1-amino-1,3,3,5,5-pentamethylcyclohexane] | – | – | improvement | improvement | improvement | improvement | low to moderate-affinity, non-competitive NMDA-receptor antagonist
